Results as given in ChEMBL document CHEMBL1145436, “Design and synthesis of 6-methyl-2-oxo-1,2,3,4-tetrahydro-pyrimidine-5-carboxylic acid derivatives as PPARgamma activators” (Bioorg Med Chem Lett, 2007).

Target: T1, Peroxisome proliferator-activated receptor gamma (Homo sapiens, UniProt P37231)
T1 sequence (P37231 whole entry): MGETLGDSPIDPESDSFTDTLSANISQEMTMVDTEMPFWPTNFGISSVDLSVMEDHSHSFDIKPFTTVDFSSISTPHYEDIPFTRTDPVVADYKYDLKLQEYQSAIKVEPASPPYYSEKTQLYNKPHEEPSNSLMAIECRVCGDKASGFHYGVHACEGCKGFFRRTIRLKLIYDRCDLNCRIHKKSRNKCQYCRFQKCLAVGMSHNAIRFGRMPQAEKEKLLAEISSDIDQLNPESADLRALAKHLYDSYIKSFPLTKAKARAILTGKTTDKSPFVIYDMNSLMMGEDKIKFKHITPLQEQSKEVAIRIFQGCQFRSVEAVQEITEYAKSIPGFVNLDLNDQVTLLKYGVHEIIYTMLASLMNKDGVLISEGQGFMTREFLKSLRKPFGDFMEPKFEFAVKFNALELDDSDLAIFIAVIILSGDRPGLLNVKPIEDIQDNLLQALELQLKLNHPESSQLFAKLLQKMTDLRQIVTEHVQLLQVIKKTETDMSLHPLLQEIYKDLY
Description: Displacement of [3H]rosiglitazone from PPAR gamma

Compound	IC50 [nM]
CC1=C(C(=O)O)C(c2ccc(OCCn3c4ccccc4c4ccccc43)cc2)NC(=O)N1 (centres undefined)	900
COc1cc(C2NC(=O)NC(C)=C2C(=O)O)ccc1OCCn1c2ccccc2c2ccccc21 (centres undefined)	820
CC1=C(C(=O)O)C(c2ccc(OCCOc3cccc4[nH]c5ccccc5c34)cc2)NC(=O)N1 (centres undefined)	1000
CC1=C(C(=O)O)C(c2ccc(OCCOc3cccc4ccc(C)nc34)cc2)NC(=O)N1 (centres undefined)	600
COc1cc(C2NC(=O)NC(C)=C2C(=O)O)ccc1OCCOc1cccc2ccc(C)nc12 (centres undefined)	800
CC1=C(C(=O)O)C(c2ccc(OCCn3ccc4cccnc43)cc2)NC(=O)N1 (centres undefined)	1000
COc1cc(C2NC(=O)NC(C)=C2C(=O)O)ccc1OCCn1ccc2cccnc21 (centres undefined)	720
CC1=C(C(=O)O)C(c2ccc(OCCOc3cc(C)nc4ccccc34)cc2)NC(=O)N1 (centres undefined)	760
COc1cc(C2NC(=O)NC(C)=C2C(=O)O)ccc1OCCOc1cc(C)nc2ccccc12 (centres undefined)	940
COc1cccc2c1c1ccccc1n2CCOc1ccc(C2NC(=O)NC(C)=C2C(=O)O)cc1 (centres undefined)	800
CC1=C(C(=O)O)C(c2ccc(OCCCn3ccc4cccnc43)cc2)NC(=O)N1 (centres undefined)	750
CC1=C(C(=O)O)C(c2ccc(OCCCOc3cc(C)nc4ccccc34)cc2)NC(=O)N1 (centres undefined)	750
CC1=C(C(=O)O)C(c2ccc(OCCOc3ccc(C(=O)c4ccc(Cl)cc4)cc3)cc2)NC(=O)N1 (centres undefined)	930
CC1=C(C(=O)O)C(c2ccc(OCCCOc3cccc4[nH]c5ccccc5c34)cc2)NC(=O)N1 (centres undefined)	900
